This passage reports IC50 results from patent US12398154B2, “Azaquinazoline pan-KRas inhibitors” (Mirati Therapeutics, Inc., priority 2020, dated 2025).

Some results are limits rather than exact numbers.

In general, IC50 refers to the concentration needed to halve the response being measured. The low end stands for inhibition by little substance, the high end for a need for much substance.

The target of one test is KRas G12S (Homo sapiens, UniProt P01116, G12S). The test can be described thus: biochemical.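 Note: TR-FRET displacement binding to KRas, read after one hour incubation at room temperature, IC50 from four-parameter fit of percent of control.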
KRas G12S, sequence (P01116 1-169 isoform P01116-2 G12S): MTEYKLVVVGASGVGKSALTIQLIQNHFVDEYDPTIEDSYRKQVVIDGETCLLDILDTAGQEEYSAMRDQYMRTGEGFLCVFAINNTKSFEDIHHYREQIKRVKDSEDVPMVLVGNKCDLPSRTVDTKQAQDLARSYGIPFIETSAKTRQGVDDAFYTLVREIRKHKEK
Another test addresses KRas G12R (Homo sapiens, UniProt P01116, G12R). The test can be described thus: biochemical.
The next test deals with KRas G12A (Homo sapiens, UniProt P01116, G12A). The test is described as follows: biochemical.
KRas G12A, sequence (P01116 1-169 isoform P01116-2 G12A): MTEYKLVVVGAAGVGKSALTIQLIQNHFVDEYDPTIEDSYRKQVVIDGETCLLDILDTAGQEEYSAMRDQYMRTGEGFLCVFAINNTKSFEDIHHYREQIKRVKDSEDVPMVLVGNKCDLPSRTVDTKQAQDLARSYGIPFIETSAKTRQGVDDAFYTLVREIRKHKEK
The next test deals with KRas G12V (Homo sapiens, UniProt P01116, G12V). The test can be described thus: biochemical.
KRas G12V, sequence (P01116 1-169 isoform P01116-2 G12V): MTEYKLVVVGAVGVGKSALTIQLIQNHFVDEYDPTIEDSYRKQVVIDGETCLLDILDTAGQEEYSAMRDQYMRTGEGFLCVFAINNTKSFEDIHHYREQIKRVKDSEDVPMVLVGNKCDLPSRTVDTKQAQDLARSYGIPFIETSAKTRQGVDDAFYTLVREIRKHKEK
The target of the next test is KRas WT (Homo sapiens, UniProt P01116). The test can be described thus: biochemical.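 Note: binding to KRas read as TR-FRET displacement after a one-hour room-temperature incubation, IC50 derived from percent-of-control values.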
KRas WT, sequence (P01116 1-169 isoform P01116-2): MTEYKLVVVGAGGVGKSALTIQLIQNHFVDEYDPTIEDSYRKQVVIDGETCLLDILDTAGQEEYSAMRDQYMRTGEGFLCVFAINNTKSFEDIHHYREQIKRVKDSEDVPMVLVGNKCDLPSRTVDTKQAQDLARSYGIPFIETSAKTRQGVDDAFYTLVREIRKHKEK
A further test concerns the target T1, KRas G13D (Homo sapiens, UniProt P01116, G13D).
T1 construct: Biotinylated KRas (corresponding to amino acids 1-169, produced at Accelegan Inc.); biotin (biotinylated); purchased Accelegan Inc
The test can be described thus: KRas binding assay (TR-FRET displacement).

The target in a further test is KRas G12D (Homo sapiens, UniProt P01116, G12D). The test is described as follows: biochemical.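 Note: TR-FRET displacement binding assay on KRas, read after a one-hour incubation at room temperature, IC50 fitted from percent-of-control values.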
KRas G12D, sequence (P01116 1-169 isoform P01116-2 G12D): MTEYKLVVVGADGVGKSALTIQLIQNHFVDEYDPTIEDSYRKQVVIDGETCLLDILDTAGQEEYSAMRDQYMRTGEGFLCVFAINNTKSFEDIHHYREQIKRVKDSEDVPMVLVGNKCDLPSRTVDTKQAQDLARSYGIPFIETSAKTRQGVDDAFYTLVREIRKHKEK
For another test, the target named is T2, KRas Q61H (Homo sapiens, UniProt P01116, Q61H).
T2 construct: Biotinylated KRas (corresponding to amino acids 1-169, produced at Accelegan Inc.); biotin (biotinylated); purchased Accelegan Inc
T2 sequence (P01116 1-169 isoform P01116-2 Q61H): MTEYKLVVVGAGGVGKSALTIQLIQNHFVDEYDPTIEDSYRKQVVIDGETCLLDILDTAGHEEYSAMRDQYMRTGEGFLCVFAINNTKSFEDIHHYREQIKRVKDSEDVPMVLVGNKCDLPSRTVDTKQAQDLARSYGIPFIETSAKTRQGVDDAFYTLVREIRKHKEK
The test can be described thus: KRas binding assay (TR-FRET displacement). Background: TR-FRET usually uses a lanthanide donor and a delayed reading to cut background.

The next test addresses KRas G12C (Homo sapiens, UniProt P01116, G12C). The test is described as follows: biochemical.

T1 sequence (P01116 1-169 isoform P01116-2 G13D): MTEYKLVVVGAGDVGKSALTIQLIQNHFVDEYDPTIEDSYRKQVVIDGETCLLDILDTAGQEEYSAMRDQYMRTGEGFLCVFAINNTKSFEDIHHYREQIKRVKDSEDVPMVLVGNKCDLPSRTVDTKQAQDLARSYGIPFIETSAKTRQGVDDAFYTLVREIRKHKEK
KRas G12C, sequence (P01116 1-169 isoform P01116-2 G12C): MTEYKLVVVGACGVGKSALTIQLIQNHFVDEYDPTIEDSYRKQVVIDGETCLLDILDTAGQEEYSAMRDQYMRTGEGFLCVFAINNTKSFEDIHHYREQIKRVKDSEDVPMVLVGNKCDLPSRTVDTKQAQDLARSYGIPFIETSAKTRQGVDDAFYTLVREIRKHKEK
KRas G12R, sequence (P01116 1-169 isoform P01116-2 G12R): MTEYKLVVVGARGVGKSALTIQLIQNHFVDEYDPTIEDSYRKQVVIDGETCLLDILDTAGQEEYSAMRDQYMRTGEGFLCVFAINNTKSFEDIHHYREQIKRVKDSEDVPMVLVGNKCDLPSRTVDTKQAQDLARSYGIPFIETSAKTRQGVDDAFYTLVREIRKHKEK

For `O=C1NCC2(CCN(c3nc(OCC45CCCN4CCC5)nc4c(F)c(-c5cccc6cccc(F)c56)ncc34)CC2)N1` [Example 217, 8-(8-fluoro-7-(8-fluoronaphthalen-1-yl)-2-((tetrahydro-1H-pyrrolizin-7a(5H)-yl)methoxy)pyrido[4,3-d]pyrimidin-4-yl)-1,3,8-triazaspiro[4.5]decan-2-one], the IC50 on KRas G12S was determined as 11.3 µM; at KRas G12R, 7.57 µM; on KRas G12A, 8.99 µM; against KRas G12V it was 5.16 µM; on KRas WT, 14 µM; at KRas G13D, 11600 nM. For the same compound, the IC50 on KRas G12D stood at 64.4 µM; at KRas Q61H it was 19500 nM; against KRas G12C, 9.88 µM.

With `Fc1c(-c2cccc3cccc(F)c23)ncc2c(Nc3ccc4cn[nH]c4c3)nc(OCC34CCCN3CCC4)nc12` [Example 218, 8-fluoro-7-(8-fluoronaphthalen-1-yl)-N-(1H-indazol-6-yl)-2-((tetrahydro-1H-pyrrolizin-7a(5H)-yl)methoxy)pyrido[4,3-d]pyrimidin-4-amine], the concentration for half-maximal inhibition (IC50) against KRas G12S is 23.2 µM; against KRas G12R, 6.53 µM; against KRas G12A, 14.8 µM; on KRas G12V it was 2.84 µM; against KRas WT, 28.9 µM; on KRas G13D, no less than 100000 nM. In addition, the IC50 against KRas G12D was 65.9 µM; on KRas Q61H, 84800 nM; at KRas G12C, 6.88 µM.

For `Fc1c(-c2cccc3cccc(F)c23)ncc2c(NCCc3cnoc3)nc(OCC34CCCN3CCC4)nc12` [Example 219, 8-fluoro-7-(8-fluoronaphthalen-1-yl)-N-(2-(isoxazol-4-yl)ethyl)-2-((tetrahydro-1H-pyrrolizin-7a(5H)-yl)methoxy)pyrido[4,3-d]pyrimidin-4-amine], the IC50 at KRas G12S was found to be 13.1 µM; on KRas G12R it was 4.78 µM; against KRas G12A, 16.2 µM; against KRas G12V it was 8.83 µM; at KRas WT, 15 µM; on KRas G13D, 18100 nM. Besides, the IC50 against KRas G12D was 65.3 µM; at KRas Q61H, 20200 nM; against KRas G12C, 5.65 µM.

On to `Fc1c(-c2cccc3cccc(F)c23)ncc2c(N3CCCC4(COC4)C3)nc(OCC34CCCN3CCC4)nc12` [Example 220, 6-(8-fluoro-7-(8-fluoronaphthalen-1-yl)-2-((tetrahydro-1H-pyrrolizin-7a(5H)-yl)methoxy)pyrido[4,3-d]pyrimidin-4-yl)-2-oxa-6-azaspiro[3.5]nonane], for which the IC50 on KRas G12S worked out at 6.31 µM; against KRas G12R, 8.67 µM; at KRas G12A, 6.75 µM; on KRas G12V it was 6.07 µM; on KRas WT, 5.57 µM; at KRas G13D it was 6700 nM. Also, the IC50 on KRas G12D stood at 10.8 µM; at KRas Q61H it was 7470 nM; at KRas G12C, 8.25 µM.

Take `NS(=O)(=O)CC1CCCN(c2nc(OCC34CCCN3CCC4)nc3c(F)c(-c4cccc5cccc(F)c45)ncc23)C1` (stereo not drawn) [Example 221, 1-(1-(8-fluoro-7-(8-fluoronaphthalen-1-yl)-2-((tetrahydro-1H-pyrrolizin-7a(5H)-yl)methoxy)pyrido[4,3-d]pyrimidin-4-yl)piperidin-3-yl)methanesulfonamide]: the IC50 against KRas G12S is 0.313 µM; against KRas G12R, 0.191 µM; at KRas G12A it was 0.271 µM; at KRas G12V, 0.556 µM; against KRas WT it was 0.284 µM; on KRas G13D, 308 nM. Further, the IC50 was found to be 0.586 µM against KRas G12D, 231 nM at KRas Q61H and 0.498 µM against KRas G12C.

As to `Fc1c(-c2cccc3cccc(F)c23)ncc2c(NCc3cnn4c3OCCC4)nc(OCC34CCCN3CCC4)nc12` [Example 222, N-((6,7-dihydro-5H-pyrazolo[5,1-b][1,3]oxazin-3-yl)methyl)-8-fluoro-7-(8-fluoronaphthalen-1-yl)-2-((tetrahydro-1H-pyrrolizin-7a(5H)-yl)methoxy)pyrido[4,3-d]pyrimidin-4-amine], the IC50 against KRas G12S turned out to be 26.9 µM; against KRas G12R, 31.2 µM; against KRas G12A it was 17.8 µM; on KRas G12V it was 18.2 µM; against KRas WT, 35.9 µM; at KRas G13D, 70100 nM. Also, the figures for the IC50 on KRas G12D, on KRas Q61H and on KRas G12C were no less than 100 µM, 52900 nM and 8.98 µM, respectively.

Turning to `CN(Cc1c[nH]c2ncccc12)c1nc(OCC23CCCN2CCC3)nc2c(F)c(-c3cccc4cccc(F)c34)ncc12` [Example 223, N-((1H-pyrrolo[2,3-b]pyridin-3-yl)methyl)-8-fluoro-7-(8-fluoronaphthalen-1-yl)-N-methyl-2-((tetrahydro-1H-pyrrolizin-7a(5H)-yl)methoxy)pyrido[4,3-d]pyrimidin-4-amine], the IC50 came out at 1.8 µM on KRas G12S; 0.665 µM against KRas G12R; 1.36 µM against KRas G12A; 0.93 µM at KRas G12V; 5.6 µM against KRas WT; 6870 nM on KRas G13D. Further, the results for the IC50 at KRas G12D, on KRas Q61H and against KRas G12C were 21.1 µM, 8650 nM and 1.19 µM, respectively.

As for `O=C1NC2(CCN(c3nc(OCC45CCCN4CCC5)nc4c(F)c(-c5cccc6cccc(F)c56)ncc34)CC2)CO1` [Example 224, 8-(8-fluoro-7-(8-fluoronaphthalen-1-yl)-2-((tetrahydro-1H-pyrrolizin-7a(5H)-yl)methoxy)pyrido[4,3-d]pyrimidin-4-yl)-3-oxa-1,8-diazaspiro[4.5]decan-2-one], the IC50 against KRas G12S was 7.11 µM; against KRas G12R it was 4.02 µM; at KRas G12A it was 8.45 µM; on KRas G12V, 8.48 µM; at KRas WT, 6.28 µM; on KRas G13D, 4830 nM. Also, the results for the IC50 against KRas G12D, on KRas Q61H and against KRas G12C were 64.8 µM, 9670 nM and 11.7 µM, respectively.

Consider `NC(=O)CCNc1nc(OCC23CCCN2CCC3)nc2c(F)c(-c3cccc4cccc(F)c34)ncc12` [Example 225, 3-((8-fluoro-7-(8-fluoronaphthalen-1-yl)-2-((hexahydro-1H-pyrrolizin-7a-yl)methoxy)pyrido[4,3-d]pyrimidin-4-yl)amino)propanamide], for which the IC50 on KRas G12S is 9.9 µM; on KRas G12R, 9.39 µM; at KRas G12A, 14.9 µM; at KRas G12V it was 6.24 µM; against KRas WT, 16.6 µM; on KRas G13D it was 23500 nM. The IC50 on KRas G12D worked out at 21.7 µM; on KRas Q61H it was 26100 nM; against KRas G12C, 8.12 µM.

Regarding `O=C1NC(=O)C2CN(c3nc(OCC45CCCN4CCC5)nc4c(F)c(-c5cccc6cccc(F)c56)ncc34)CC12` (stereo not drawn) [Example 228, 5-(8-fluoro-7-(8-fluoronaphthalen-1-yl)-2-((hexahydro-1H-pyrrolizin-7a-yl)methoxy)pyrido[4,3-d]pyrimidin-4-yl)tetrahydropyrrolo[3,4-c]pyrrole-1,3(2H,3aH)-dione], the IC50 against KRas G12S worked out at 0.202 µM; against KRas G12R, 0.224 µM; against KRas G12A it was 1.21 µM; at KRas G12V it was 0.148 µM; against KRas WT it was 2.7 µM; at KRas G13D, 465 nM. In addition, the IC50 on KRas G12D amounted to 0.147 µM; on KRas Q61H it was 822 nM; on KRas G12C it was 1.02 µM.

`O=c1[nH][nH]cc1CNc1nc(OCC23CCCN2CCC3)nc2c(F)c(-c3cccc4cccc(F)c34)ncc12` [Example 230, 4-(((8-fluoro-7-(8-fluoronaphthalen-1-yl)-2-((hexahydro-1H-pyrrolizin-7a-yl)methoxy)pyrido[4,3-d]pyrimidin-4-yl)amino)methyl)-1H-pyrazol-3(2H)-one]: the IC50 stood at 19.7 µM on KRas G12S; 9.85 µM at KRas G12R; 11.3 µM at KRas G12A; 7.99 µM at KRas G12V; 28.4 µM against KRas WT; 35500 nM on KRas G13D. The IC50 on KRas G12D came to 38.8 µM; on KRas Q61H, 23300 nM; against KRas G12C, 10.6 µM.

As for `O=c1cc(CNc2nc(OCC34CCCN3CCC4)nc3c(F)c(-c4cccc5cccc(F)c45)ncc23)[nH][nH]1` [Example 231, 5-(((8-fluoro-7-(8-fluoronaphthalen-1-yl)-2-((hexahydro-1H-pyrrolizin-7a-yl)methoxy)pyrido[4,3-d]pyrimidin-4-yl)amino)methyl)-1H-pyrazol-3(2H)-one], the IC50 against KRas G12S turned out to be 31.6 µM; against KRas G12R it was 8.68 µM; against KRas G12A it was 52.1 µM; at KRas G12V it was 24.6 µM; against KRas WT, 49.4 µM; at KRas G13D it was 61500 nM. Further, the values for the IC50 at KRas G12D, on KRas Q61H and on KRas G12C were 97.9 µM, 62300 nM and 29.6 µM, respectively.

Regarding `Fc1c(-c2cccc3cccc(F)c23)ncc2c(N3CCCC4(CCC4)C3)nc(OCC34CCCN3CCC4)nc12` [Example 232, 8-fluoro-7-(8-fluoronaphthalen-1-yl)-2-((hexahydro-1H-pyrrolizin-7a-yl)methoxy)-4-(6-azaspiro[3.5]nonan-6-yl)pyrido[4,3-d]pyrimidine], the IC50 stood at 19.4 µM on KRas G12S; 9.99 µM at KRas G12R; 17.3 µM on KRas G12A; 7.78 µM against KRas G12V; 19.2 µM against KRas WT; 18000 nM at KRas G13D. For the same compound, the half-inhibitory concentration (IC50) stood at 11.9 µM against KRas G12D, 25900 nM at KRas Q61H and 13.6 µM at KRas G12C.
